Patent publication US9650395B2, “Antibacterial compounds and methods for use” (PTC Therapeutics, Inc., priority 2011, dated 2017)
Values after ≈ are worked out from the molar mass of the structure shown.

What was measured:
[1] = system: resistant A. baumannii MXX2240 (MDR clinical isolate); assay: Antibacterial activity, MIC, resistant A. baumannii MXX2240; format: cell-based, Acinetobacter baumannii; conditions: Acinetobacter baumannii, resistant A. baumannii MMX2240, MDR clinical isolate; read-out: MIC MMX2240
[2] = system: Acinetobacter baumannii (A. baumannii) BAA747; assay: Antibacterial activity, MIC, A. baumannii BAA747; format: cell-based; conditions: Acinetobacter baumannii; A. baumannii BAA747; read-out: MIC BAA747
[3] = system: control Gram-negative E. coli 25922 strain; assay: Antibacterial activity, microbroth dilution MIC, E. coli 25922; format: cell-based, Escherichia coli; conditions: Escherichia coli; E. coli 25922, microbroth dilution; read-out: MIC, 25922
[4] = system: super sensitive Gram-negative Escherichia coli (E. coli) BAS849; assay: Antibacterial activity, microbroth dilution MIC, E. coli BAS849; format: cell-based; conditions: Escherichia coli; E. coli BAS849, microbroth dilution; read-out: MIC, BAS849
[5] = system: Gram-positive Staphylococcus aureus (S. aureus) 29213; assay: Antibacterial activity, microbroth dilution MIC, S. aureus 29213; format: cell-based; conditions: Staphylococcus aureus; S. aureus 29213, microbroth dilution; read-out: MIC, 29213
[6] = system: resistant K. pneumoniae MXX1232 (MDR clinical isolate); assay: Antibacterial activity, MIC, resistant K. pneumoniae MXX1232; format: cell-based, Klebsiella pneumoniae; conditions: Klebsiella pneumoniae; resistant K. pneumoniae MMX1232, MDR clinical isolate; read-out: MIC MMX1232
[7] = system: Pseudomonas aeruginosa (P. aeruginosa) 27853; assay: Antibacterial activity, MIC, P. aeruginosa 27853; format: cell-based; conditions: Pseudomonas aeruginosa, P. aeruginosa 27853; read-out: MIC 27853
From the text: (§1) The antibacterial activity from a microbroth dilution method may be presented as the minimum inhibitory concentration (MIC in […]). The MIC value is the lowest concentration of a drug which prevents macroscopically visible bacterial growth under test conditions.
Antibacterial activity of test compounds against the Gram-negative bacterium Pseudomonas aeruginosa (P. aeruginosa) 27853 is shown in Table 5.

[8] = system: Klebsiella pneumoniae (K. pneumoniae) 35657; assay: Antibacterial activity, MIC, K. pneumoniae 35657; format: cell-based; conditions: Klebsiella pneumoniae
[9] = system: quinolone resistant E. coli LZ3111; assay: Antibacterial activity, MIC, quinolone resistant E. coli LZ3111; format: cell-based, Escherichia coli; conditions: Escherichia coli, read-out: MIC, LZ3111
From the text: as §1
Mutations in these regions are known to confer a high level resistance to the quinolone class of antibiotics.

SMILES | MIC [1] [µg/mL] | MIC [2] [µg/mL] | MIC [3] [µg/mL] | MIC [4] [µg/mL] | MIC [5] [µg/mL] | MIC [6] [µg/mL] | MIC [7] [µg/mL] | MIC [8] [µg/mL] | MIC [9] [µg/mL]
CCc1c(-c2cnc(N3CCC(N(C)C)C3)cn2)[nH]c(=O)c(C(=O)O)c1O (stereo not drawn) [Cpd 314, 6-(5-(3-(dimethylamino)pyrrolidin-1-yl)pyrazin-2-yl)-5-ethyl-4-hydroxy-2-oxo-1,2-dihydropyridine-3-carboxylic acid] | 12.5 to 150 (≈ 33.5 to 402 µM) | 12.5 to 150 (≈ 33.5 to 402 µM) | 12.5 to 150 (≈ 33.5 to 402 µM) | 3.5 to 12.5 (≈ 9.37 to 33.5 µM) | 12.5 to 150 (≈ 33.5 to 402 µM) | 12.5 to 150 (≈ 33.5 to 402 µM) | 12.5 to 150 (≈ 33.5 to 402 µM) | 12.5 to 150 (≈ 33.5 to 402 µM) | 3.5 to 12.5 (≈ 9.37 to 33.5 µM)
Cc1c(-c2ccc(N3CCCC3)cn2)[nH]c(=O)c(C(=O)O)c1O [Cpd 315, 4-hydroxy-5-methyl-2-oxo-6-(5-(pyrrolidin-1-yl)pyridin-2-yl)-1,2-dihydropyridine-3-carboxylic acid] | 12.5 to 150 (≈ 39.6 to 476 µM) | 12.5 to 150 (≈ 39.6 to 476 µM) | 12.5 to 150 (≈ 39.6 to 476 µM) | 1 to 3.5 (≈ 3.17 to 11.1 µM) | 12.5 to 150 (≈ 39.6 to 476 µM) | 12.5 to 150 (≈ 39.6 to 476 µM) | 12.5 to 150 (≈ 39.6 to 476 µM) | 12.5 to 150 (≈ 39.6 to 476 µM) | 12.5 to 150 (≈ 39.6 to 476 µM)
Cc1c(-c2ccc(N3CCC(N(C)C)C3)cn2)[nH]c(=O)c(C(=O)O)c1O (stereo not drawn) [Cpd 316, 6-(5-(3-(dimethylamino)pyrrolidin-1-yl)pyridin-2-yl)-4-hydroxy-5-methyl-2-oxo-1,2-dihydropyridine-3-carboxylic acid] | 12.5 to 150 (≈ 34.9 to 419 µM) | 12.5 to 150 (≈ 34.9 to 419 µM) | 12.5 to 150 (≈ 34.9 to 419 µM) | 12.5 to 150 (≈ 34.9 to 419 µM) | 12.5 to 150 (≈ 34.9 to 419 µM) | 12.5 to 150 (≈ 34.9 to 419 µM) | 12.5 to 150 (≈ 34.9 to 419 µM) | 12.5 to 150 (≈ 34.9 to 419 µM) | 12.5 to 150 (≈ 34.9 to 419 µM)
Cc1c(-c2ccc(N3C[C@@H]4[C@@H](N)[C@@H]4C3)cn2)[nH]c(=O)c(C(=O)O)c1O [Cpd 317, 6-(5-((1R,5S,6s)-6-amino-3-azabicyclo[3.1.0]hexan-3-yl)pyridin-2-yl)-4-hydroxy-5-methyl-2-oxo-1,2-dihydropyridine-3-carboxylic acid] | 12.5 to 150 (≈ 36.5 to 438 µM) | 12.5 to 150 (≈ 36.5 to 438 µM) | 3.5 to 12.5 (≈ 10.2 to 36.5 µM) | 3.5 to 12.5 (≈ 10.2 to 36.5 µM) | 12.5 to 150 (≈ 36.5 to 438 µM) | 12.5 to 150 (≈ 36.5 to 438 µM) | 12.5 to 150 (≈ 36.5 to 438 µM) | 3.5 to 12.5 (≈ 10.2 to 36.5 µM) | 12.5 to 150 (≈ 36.5 to 438 µM)
Cc1cc(N2C[C@@H]3[C@@H](N)[C@@H]3C2)ccc1-c1[nH]c(=O)c(C(=O)O)c(O)c1C [Cpd 318, 6-(4-((1R,5S,6s)-6-amino-3-azabicyclo[3.1.0]hexan-3-yl)-2-methylphenyl)-4-hydroxy-5-methyl-2-oxo-1,2-dihydropyridine-3-carboxylic acid] | 12.5 to 150 (≈ 35.2 to 422 µM) | 12.5 to 150 (≈ 35.2 to 422 µM) | 12.5 to 150 (≈ 35.2 to 422 µM) | 3.5 to 12.5 (≈ 9.85 to 35.2 µM) | 12.5 to 150 (≈ 35.2 to 422 µM) | 12.5 to 150 (≈ 35.2 to 422 µM) | 12.5 to 150 (≈ 35.2 to 422 µM) | 12.5 to 150 (≈ 35.2 to 422 µM) | 12.5 to 150 (≈ 35.2 to 422 µM)
CCc1c(-c2ccc(N3CC4(CCN(C)CC4)C3)cc2)[nH]c(=O)c(C(=O)O)c1O [Cpd 319, 5-ethyl-4-hydroxy-6-(4-(7-methyl-2,7-diazaspiro[3.5]nonan-2-yl)phenyl)-2-oxo-1,2-dihydropyridine-3-carboxylic acid] | 12.5 to 150 (≈ 31.4 to 377 µM) | 12.5 to 150 (≈ 31.4 to 377 µM) | 3.5 to 12.5 (≈ 8.81 to 31.4 µM) | < 1 | 12.5 to 150 (≈ 31.4 to 377 µM) | 12.5 to 150 (≈ 31.4 to 377 µM) | 12.5 to 150 (≈ 31.4 to 377 µM) | 3.5 to 12.5 (≈ 8.81 to 31.4 µM) | 12.5 to 150 (≈ 31.4 to 377 µM)
CCc1c(-c2ccc(N3CC4(CCNCC4)C3)cc2)[nH]c(=O)c(C(=O)O)c1O [Cpd 320, 6-(4-(2,7-diazaspiro[3.5]nonan-2-yl)phenyl)-5-ethyl-4-hydroxy-2-oxo-1,2-dihydropyridine-3-carboxylic acid] | 12.5 to 150 (≈ 32.6 to 391 µM) | 12.5 to 150 (≈ 32.6 to 391 µM) | 12.5 to 150 (≈ 32.6 to 391 µM) | 3.5 to 12.5 (≈ 9.13 to 32.6 µM) | 12.5 to 150 (≈ 32.6 to 391 µM) | 12.5 to 150 (≈ 32.6 to 391 µM) | 12.5 to 150 (≈ 32.6 to 391 µM) | 3.5 to 12.5 (≈ 9.13 to 32.6 µM) | 12.5 to 150 (≈ 32.6 to 391 µM)
CCc1c(-c2ccc(N3CCC4(CCNC4)C3)cc2)[nH]c(=O)c(C(=O)O)c1O (stereo not drawn) [Cpd 321, 6-(4-(2,7-diazaspiro[4.4]nonan-2-yl)phenyl)-5-ethyl-4-hydroxy-2-oxo-1,2-dihydropyridine-3-carboxylic acid] | 12.5 to 150 (≈ 32.6 to 391 µM) | 12.5 to 150 (≈ 32.6 to 391 µM) | 12.5 to 150 (≈ 32.6 to 391 µM) | 1 to 3.5 (≈ 2.61 to 9.13 µM) | 12.5 to 150 (≈ 32.6 to 391 µM) | 12.5 to 150 (≈ 32.6 to 391 µM) | 12.5 to 150 (≈ 32.6 to 391 µM) | 3.5 to 12.5 (≈ 9.13 to 32.6 µM) | 12.5 to 150 (≈ 32.6 to 391 µM)
CCc1c(-c2ccc(N3CCC4(CCN(C)C4)C3)cc2)[nH]c(=O)c(C(=O)O)c1O (stereo not drawn) [Cpd 322, 5-ethyl-4-hydroxy-6-(4-(7-methyl-2,7-diazaspiro[4.4]nonan-2-yl)phenyl)-2-oxo-1,2-dihydropyridine-3-carboxylic acid] | 12.5 to 150 (≈ 31.4 to 377 µM) | 1 to 3.5 (≈ 2.52 to 8.81 µM) | < 1 | < 1 | 3.5 to 12.5 (≈ 8.81 to 31.4 µM) | 12.5 to 150 (≈ 31.4 to 377 µM) | 3.5 to 12.5 (≈ 8.81 to 31.4 µM) | 1 to 3.5 (≈ 2.52 to 8.81 µM) | 12.5 to 150 (≈ 31.4 to 377 µM)
